Where two headings read alike, the source gives them in different places.
Assays:
[1] = test system: PC-3 prostate cancer cells; assay: Growth inhibition by MTT staining, PC-3; type: cell-based, Human
Experimental: (§1) Growth inhibitory effects of PCNA-I1 and PCNA-I2 were assessed in human cancer cell lines, mouse cancer cell lines, immortalized mouse cell lines, and human primary cell lines. Specifically, growth inhibitory effects of PCNA-I1 and PCNA-I2 were assessed using MTT staining in the following cells lines: 1) human cancer cell lines including LNCaP (androgen receptor […]), 22Rv1, DU-145, LAPC-4, and PC-3 (androgen receptor […]) prostate cancer cells; MCF-7 and T47D breast cancer cells; A375 and MDA-MB435 melanoma cells; 2) mouse cancer cell lines including TRAMP-C2RE3 prostate cancer cells, B16 and K1735 melanoma cells, UV2237 fibrosarcoma cells, and CT-26 colon cancer cells; 3) immortalized mouse lung cell lines and mouse endothelial cell lines; and 4) primary human cell lines including umbilical endothelial cells (HUVEC, PromoCell, Heidelberg, Germany), primary bone marrow mesenchymal stem cells (HuMSC, PromoCell), primary human mammary epithelial cells (HuBrEC, Lonza, Walkersville, Md.), primary human prostate epithelial cells (HuPrEC, Lonza), and primary mouse spleen lymphocytes (isolated in this laboratory), and primary mouse bone marrow stromal cells (isolated in this laboratory). PCNA-I1 and PCNA-I2 were either provided by the University of Cincinnati Drug Discovery Center (UC-DDC, Cincinnati, Ohio) or were purchased from Chembridge Co (San Diego, Calif.), ChemDiv (San Diego, Calif.), and/or Sigma-Aldrich (St Louis, Mo.).
Growth inhibitory effects of the compounds were assessed by MTT staining as described previously by Dong et al. in In Vitro Model for Intrinsic Drug Resistance: Effects of Protein Kinase C Activators on the Chemosensitivity of Cultured Human Colon Cancer Cells; Mol. Pharmacol. 1991; 39: 563-9. Briefly, cells were cultured and treated in their respective media. Cells were plated into 96-well plates at 1000 to 5000 cells/well. After an overnight incubation, the cells were treated for four days with various concentrations (up to 10 μM) of PCNA-I1 or PCNA-I2. The live cells were stained with MTT and cells in exponential growth phase were harvested by a one to three minute treatment with a 0.25% trypsin-0.02% EDTA solution. Flasks were tapped to detach the cells, RPMI 1640-10% FBS was added, and the cell suspensions were gently agitated to produce single-cell suspensions. The cell suspensions were washed and resuspended in medium with supplements specified for different cells. Only suspensions of single cells with a viability exceeding 95% (ascertained by trypan blue exclusion) were used.
IC50 values were derived from growth inhibition curves. Data for tumor cells are a mean of five to seven experiments. Data for primary cells are a mean of three experiments. […] Inhibition of cell growth was calculated using the formula: growth inhibition (%)=(1−A570 of treated/A570 of control)×100. IC50 (the concentration that inhibited cell growth by 50%) values were also determined. For evaluation of lymphocyte growth in suspension, an Alamar blue assay was performed, wherein freshly prepared mouse spleen lymphocytes were stimulated for 72 H with 2 ug/mL concanavalin A (Sigma Chemicals, St. Louis, […].). During the last 24 H, 20 μl/well of Alamar blue (Invitrogen, Carlsbad, Calif.) was added. The fluorescence intensity was measured at 530/580 (excitation/emission) in the FLUOstar Omega microplate reader (BMG LABTECH, Cary, N.C.).
Growth inhibitory effects of PCNA-I3, PCNA-I4, PCNA-I6, PCNA-I7, PCNA-I8, PCNA-I9 and PCNA-I10 were assessed in human prostate cancer cell lines. Specifically, growth inhibitory effects of PCNA-I3, PCNA-I4, PCNA-I6, PCNA-I7, PCNA-I8, PCNA-I9 and PCNA-I10 were assessed using MTT staining in LNCaP and PC-3 cells. […]

T47D breast cancer cells = assay: Growth inhibition by MTT staining, T47D; type: cell-based; details: 96 h, Human tumor cells, treated four days
Experimental: as §1, with “PCNA-I1 and PCNA-I2 were either provided by the University of Cincinnati Drug Discovery Center (UC-DDC, Cincinnati, Ohio) or were purchased from Chembridge Co (San Diego, Calif.), ChemDiv (San Diego, Calif.), and/or Sigma-Aldrich (St Louis, Mo.).” left out
IC50 values were derived from growth inhibition curves. […] Inhibition of cell growth was calculated using the formula: growth inhibition (%)=(1−A570 of treated/A570 of control)×100. […]

PCNA = biological target: T1, PCNA (Homo sapiens, UniProt P12004); assay: PCNA stability and degradation (immunoblot); type: cell-based; details: PC-3, 0.5 μM, up to 16 H, with or without CHX and MG132; FIG. 14
T1 construct: endogenous PCNA was knocked down with transfection of PCNA-specific siRNA; endogenous in cells; host or cells: PC-3
Experimental: PCNA is a very stable protein with a half life of 20 H in replicating cells. The effect of PCNA-I1 on PCNA stability and degradation was investigated. Specifically, PC-3 cells were treated for various times up to 24 H with protein synthesis inhibitor cycloheximide (CHX) to block de novo protein synthesis. Cells were lyzed in buffer A as discussed above and analyzed by immunoblotting. Additionally, because PCNA is subject to ubiquitination regulation, the effect of PCNA-I1 on and deregulation of PCNA through the proteosome-mediated system was also investigated. Specifically, PC-3 cells were treated for 16 H with 0.5 μM PCNA-I1 in the absence or presence of 5 μg/mL of CHX and/or 10 μM of MG132, a well-documented proteosome inhibitor.

p21Waf1/Cip1 and PCNA = biological target: T2, p21Waf1/Cip1 and PCNA (Homo sapiens, UniProt P12004); assay: Association of p21Waf1/Cip1 to PCNA (immunoprecipitation); type: cell-based; details: Pc-3 and LNCaP, 0.5 μM, 8 H; FIG. 13
T2 construct: endogenous in cells; host or cells: PC-3, LNCaP
Experimental: Chromatin-associated trimeric PCNA executes its function through numerous partner proteins, including p21Waf1/Cip1. To validate that treatment with PCNA-I1 reduces function of PCNA, the binding of p21Waf1/Cip1 to PCNA was investigated. Specifically, Pc-3 and LNCaP cells were treated with PCNA-I1 (0.5 μM) for 8 H and lysed in buffer B as previously discussed. Chromatin-associated protein was extracted in buffer D containing 0.42 M NaCl. The chromatin-associated protein was precipitated with the antibody to PCNA, and was resolved in SDS-PAGE, and probed with antibodies to p21Waf1/Cip1 and PCNA.

PC-3 cells = assay: Alamar blue assay, PC-3 cells as positive control; type: cell-based, Human; details: FIG. 2(B)
Experimental: The effects of PCNA-I1 on growth of tumor cells versus primary cells was also investigated. Specifically, the effects of PCNA-1I on the growth of primary cells was investigated using primary culture of mouse lymphocytes. An Alamar blue assay was performed with PC-3 cells as a positive control. Freshly prepared mouse spleen lymphocytes were stimulated for 72 H with 2 μg/mL of concanavalin A. During the last 24 H, 20 μL/well of alamar blue was added. The fluorescence intensity was measured at 530/580 (excitation/emission).

T1 sequence (P12004 whole entry): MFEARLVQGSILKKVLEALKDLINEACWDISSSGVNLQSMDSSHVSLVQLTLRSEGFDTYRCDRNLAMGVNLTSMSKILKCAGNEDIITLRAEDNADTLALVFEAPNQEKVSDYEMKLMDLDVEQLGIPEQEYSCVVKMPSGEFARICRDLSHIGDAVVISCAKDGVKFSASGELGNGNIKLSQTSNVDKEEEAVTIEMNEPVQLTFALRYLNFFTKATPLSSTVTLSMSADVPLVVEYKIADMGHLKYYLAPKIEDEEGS
T2 sequence (P12004 whole entry): as above

## Cc1ccsc1C(=O)N/N=C/c1ccc2ccccc2c1O [PCNA-I1]
[1]; 96 h, Table II, Human tumor cells, MTT, treated four days, mean of five to seven experiments, read-out: IC50 Values, PC-3
  IC50: 240 nM
[1]; Homo sapiens, FIG. 2(C), read-out: IC50, PC-3
  IC50: 250 nM
T47D breast cancer cells
  IC50: 150 nM
PCNA
  PCNA degradation: did not alter PCNA degradation
p21Waf1/Cip1 and PCNA
  Level of chromatin-associated PCNA and p21Waf1/Cip1: reduced the level of PCNA and p21Waf1/Cip1
PC-3 cells
  Susceptibility of PC-3 cells relative to lymphocytes: approximately three times more susceptible than lymphocytes
PC-3 cells; Homo sapiens, PC-3, Alamar blue assay
  IC50: 482 nM

Source: patent US9895363B2, “Methods for modulating function of proliferating cell nuclear antigen (PCNA) and treating cancer with PCNA-targeting compounds” (University of Cincinnati, priority 2010, dated 2018)
